Several values for one entry are separate records, joined by “and”; a condition that tells them apart may be missing. Equal entries are not always repeated.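 Results reflect a 48-hour exposure of cells in 96-well plates to compound at five concentrations. At the GI50, growth is halved. Definition used: TGI = concentration required for complete inhibition of growth.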

Results on eight compounds are retold here after PubChem BioAssay (NCI).

Assay in all cases: inhibition of tumour cell growth, NCI panel, 48 h
The test system of test [1] is HT29 colon.
Test [2] concerns NCI-H226 lung.
Test [3] has as its system IGROV1 ovarian.
In test [4] the test system is SK-MEL-2 melanoma.
The test system of test [5] is RPMI-8226 leukemia.
The subject of test [6] is U251 CNS.
The subject of test [7] is BT-549 breast.
Test [8] relates to HOP-62 NSCLC.
Test [9] relates to HCT-15 colon.
Test [10] deals with LOX IMVI melanoma.

In the case of `NS(=O)(=O)c1ccc(NC(=O)Nc2ccccc2F)cc1`, the TGI in test [1], in test [2], in test [3], in test [4], in [5] and in test [6] was over 100 µM throughout. The TGI in [7], in test [8], in test [9] and in test [10] was over 100 µM in each case.
On to `N#Cc1c2c(c(-c3cccs3)n(C3OC(CO)C(O)C(O)C3O)c1=S)CCc1ccccc1-2` (stereo not drawn), for which the GI50 in test [1] was 6.27 µM and > 20.9 µM; in test [5] it was 9.27 µM and > 23.7 µM; in test [8], 14.9 µM and 38.5 µM. Moreover, the TGI in [1], in test [2], in test [3], in test [4], in [5] and in [6] was over 100 µM each time. The TGI in test [7], in test [8], in [9] and in test [10] was over 100 µM in each case.
Consider `COc1c(N2CCN(Cn3c(O)c(N=NC(=O)c4ccncc4)c4cc(F)ccc43)C(C)C2)c(F)cc2c(=O)c(C(=O)O)cn(C3CC3)c12` (stereo not drawn), for which the GI50 in test [1] is over 50 µM; in [2] it was 25400 nM; in test [3], 42.1 µM; in test [4], over 50 µM; in [5] it was 15.1 µM; in test [6], 14700 nM. Moreover, the GI50 in [7] is 37500 nM; in [8] it was 21.7 µM; in test [9] it was 17 µM; in test [10] it was 24100 nM. In addition, the TGI was over 50 µM in test [1]; over 50 µM in test [2]; over 50 µM in test [3]; over 50 µM in test [4]; 47.2 µM in test [5]; over 50 µM in test [6]. For the same compound, the TGI in [7], in test [8], in test [9] and in [10] was over 50 µM throughout.
For the compound `CCCCCc1c(C)[nH]c(/C=C2\N=C(c3ccc[nH]3)C=C2OCc2ccccc2)c1C`, the GI50 in test [1] is 0.0314 µM and 0.0196 µM; in [2], 74.8 nM and 201 nM; in test [3] it was 0.161 µM and 0.0596 µM; in test [4], 0.0297 µM and 0.0205 µM; in test [5], 0.0343 µM and 0.0301 µM; in test [6], 28.9 nM and 23.9 nM. For the same compound, the GI50 in [7] was 234 nM and 119 nM; in test [8] it was 0.164 µM and 0.0925 µM; in test [9] it was 0.0368 µM and 0.0246 µM; in [10] it was 19.5 nM and 11.7 nM. In addition, the TGI in test [1] was 1.22 µM; in [2], 1.65 µM and 2.03 µM; in [3], 1.79 µM and 1.4 µM; in test [4] it was 0.0753 µM and 0.0609 µM; in test [5] it was 0.235 µM and 0.317 µM; in [6] it was 0.195 µM and 0.122 µM. Further, the TGI in test [7] was 1.78 µM and 1.18 µM; in test [8], 1.89 µM and 1.37 µM; in [9], 0.279 µM and 0.15 µM; in test [10] it was 0.0458 µM and 0.0377 µM.
Regarding `COc1cc([C@@H]2c3cc4c(cc3C(OC3O[C@@H]5COC(C)O[C@H]5[C@H](O)[C@H]3O)C3COC(=O)[C@@H]32)OCO4)cc(OC)c1O` (stereo partly drawn), the GI50 was 5.42 µM in test [1]; 792 nM in test [2]; 2.95 µM in test [3]; 7.37 µM in test [4]; 0.666 µM in test [5]; 667 nM in test [6]. Further, the GI50 in [7] was 1660 nM; in test [8], 0.619 µM; in test [9] it was 8.4 µM; in test [10], 444 nM. Also, the TGI is 20.3 µM in test [1]; 7.25 µM in test [2]; over 50 µM in test [3]; 31.9 µM in test [4]; 7.83 µM in test [5]; 14.9 µM in [6]. The TGI in test [7] was over 29.2 µM; in [8], 2.97 µM; in [9] it was over 50 µM; in test [10] it was 13.7 µM.
`O=C(CCl)Nc1cc(O)c2c(c1)C(=O)c1cccc(O)c1C2=O`: the GI50 in [1] was 1.99 µM; in test [2], 1310 nM; in [3] it was 0.942 µM; in test [4], 1.49 µM; in test [5], 2.17 µM; in test [6], 1630 nM. In addition, the GI50 was 1240 nM in [7], 1.71 µM in test [8], 0.62 µM in [9] and 166 nM in [10]. Moreover, the TGI in test [1] is 3.89 µM; in [2], 4.93 µM; in [3] it was 3.13 µM; in [4], 3.93 µM; in test [5], 6.39 µM; in test [6], 3.18 µM. Besides, the TGI in [7] was 3.3 µM; in test [8], 3.38 µM; in [9], 2.01 µM; in test [10], 0.623 µM.
Turning to `O=C(O)C(=O)CBr`, the GI50 is > 47.5 µM and 25.3 µM in [1]; over 100000 nM in test [2]; 33.5 µM and 62.1 µM in test [3]; > 100 µM and 20 µM in test [4]; > 48.9 µM and 26.8 µM in test [5]; > 100000 nM and 21600 nM in [6]. The GI50 in [7] was > 47600 nM and 20000 nM; in [8], > 100 µM and 19.3 µM; in [9] it was > 35.2 µM and 17.3 µM; in [10], > 44400 nM and 17300 nM. Further, the TGI was > 76.8 µM and 62.5 µM in test [1]; over 100 µM in [2]; over 100 µM in test [3]; > 100 µM and 37.5 µM in test [4]; > 73.5 µM and 55.6 µM in [5]; > 100 µM and 42.9 µM in [6]. In addition, the TGI in test [7] was > 77.9 µM and 35.2 µM; in test [8] it was > 100 µM and 38.1 µM; in test [9], > 53.1 µM and 33.1 µM; in [10], > 63.1 µM and 31.8 µM.
Turning to `Cc1cc(S(=O)(=O)Nc2nc3cc(Cl)ccc3o2)c(SCc2ccccc2)cc1Cl`, the GI50 in [1] was 39.9 µM; in test [2], 38500 nM; in [3], 19.8 µM; in [4], 20.5 µM; in [5], 20.3 µM; in test [6], 19200 nM. Besides, the GI50 in [7] is 19300 nM; in test [8], 21.9 µM; in [9], 8.28 µM; in test [10], 21400 nM. In addition, the TGI is over 100 µM in test [1]; over 100 µM in test [2]; 44.3 µM in test [3]; 43.1 µM in test [4]; 66.2 µM in test [5]; 37.1 µM in test [6]. The TGI amounted to 38.7 µM in test [7], 40 µM in test [8], 25 µM in [9] and 48.9 µM in test [10].
